Patent publication US20260232851A1, “METHODS FOR THE DETECTION AND DIAGNOSIS OF CANCERS ASSOCIATED WITH OVEREXPRESSION OF PSMA RECEPTOR” (CLARITY PHARMACEUTICALS LIMITED, priority 2023, published 2026)

Columns and labels:
LNCap tumor = conditions: mouse, in vivo
Description: Ex vivo tumor uptake expressed as percentage injected activitiy per gram of tissue (% lAg) (mean±/−SEM, n=3/group) in LNCap tumor bearing NSG mice following injection of either monomeric [^64Cu]Cu-SarPSMA (2 MBq, 0.9 nmol of peptide) or dimeric [^64Cu]Cu-Sar-bisPSMA (2 MBq, 0.2 nmol of peptide).

PSMA receptor = molecular target: T1, PSMA receptor (Homo sapiens, UniProt Q04609); assay: Same-day (Day 0) versus next-day (Day 1) PET imaging of patients; format: in vivo; conditions: ^18F-labelled ligand as SOC
T1 construct: localises at sites that overexpress the PSMA receptor and are indicative of a cancer; from tissue; host or cells: Primary prostate cancer and metastatic lesions (lymph node, bone, prostatic bed) in living patients
T1 sequence (Q04609 whole entry): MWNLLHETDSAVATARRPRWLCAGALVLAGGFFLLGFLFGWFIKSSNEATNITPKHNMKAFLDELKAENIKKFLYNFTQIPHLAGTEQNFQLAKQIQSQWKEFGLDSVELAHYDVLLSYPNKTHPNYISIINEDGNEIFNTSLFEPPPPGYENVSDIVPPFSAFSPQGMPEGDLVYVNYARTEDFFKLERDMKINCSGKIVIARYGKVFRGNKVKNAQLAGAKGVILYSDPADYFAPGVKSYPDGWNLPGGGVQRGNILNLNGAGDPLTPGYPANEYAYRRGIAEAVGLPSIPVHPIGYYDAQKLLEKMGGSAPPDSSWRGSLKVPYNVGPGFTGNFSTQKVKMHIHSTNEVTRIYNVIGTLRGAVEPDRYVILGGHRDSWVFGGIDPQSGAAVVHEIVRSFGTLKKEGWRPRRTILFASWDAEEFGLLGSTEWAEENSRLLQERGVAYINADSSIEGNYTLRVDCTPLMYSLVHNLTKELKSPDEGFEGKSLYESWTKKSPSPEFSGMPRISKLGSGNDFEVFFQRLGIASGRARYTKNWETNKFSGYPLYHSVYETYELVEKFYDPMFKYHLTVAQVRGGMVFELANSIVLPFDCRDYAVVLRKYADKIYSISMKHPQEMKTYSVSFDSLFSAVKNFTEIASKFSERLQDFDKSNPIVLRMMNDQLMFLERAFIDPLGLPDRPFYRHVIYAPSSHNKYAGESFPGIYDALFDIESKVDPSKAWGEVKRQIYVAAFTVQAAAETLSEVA

Row | SMILES | Uptake and retention at tumors, dimer versus monomer (FIG. 1) (LNCap tumor) | Screening result on SOC PET/CT (FIG. 9A) (PSMA receptor)
1 | CC12CNCCNCC(NC(=O)CCCC(=O)N[C@H](Cc3ccccc3)C(=O)N[C@H](Cc3ccccc3)C(=O)NCCCCCCCC(=O)NCCCC[C@H](NC(=O)N[C@@H](CCC(=O)O)C(=O)O)C(=O)O)(CNCCNC1)CNCCNC2 [^64Cu-SarPSMA, metal not drawn] | less uptake and retention | –
2 | O=C(O)CC[C@H](NC(=O)N[C@@H](CCCCNC(=O)c1ccc([18F])nc1)C(=O)O)C(=O)O [^18F-DCFPyL, DCFPyL, reference compound] | – | negative/equivocal
